Test results from ChEMBL document CHEMBL4742397, “Compositions and methods for regulating body weight and metabolic syndromes” (2018).
Calls of active or inactive are those of the source. No cut-off for these calls is given here.

Key:
[1] = tested on: 3T3-L1; test: Inhibition of lipid accumulation in mouse 3T3-L1 cells at 5 to 20 uM incubated for 6 days by Oil Red O staining based spectrometric assay; type: functional, cell-based; settings: dose 5-20 µM, time 6.0 day
[2] = tested on: 3T3-L1; test: Inhibition of CE accumulation in mouse 3T3-L1 cells; type: functional, cell-based
[3] = tested on: 3T3-L1; test: Suppression of cholesterol levels in mouse 3T3-L1 cells; type: functional, cell-based
[4] = tested on: 3T3-L1; test: Increase in 125 kDa inactive precursor form of SREBPl protein in mouse 3T3-L1 cells at 20 uM incubated for 6 days by Western blot analysis; type: functional, cell-based; settings: time 6.0 day
[5] = tested on: 3T3-L1; test: Inhibition of cholesterol uptake related gene expression in mouse 3T3-L1 cells assessed as reduction in SR-B1 expression at 20 uM incubated for 6 days by real-time PCR analysis; type: functional, cell-based; settings: time 6.0 day
[6] = tested on: Mus musculus; test: Anti-diabetic activity in high fat diet-fed C57BL/6J mouse model of obesity and diabetes assessed as improvement in glucose tolerance at 20 mg/kg, ip dosed daily for 2 weeks; type: functional, organism-based
[7] = tested on: 3T3-L1; test: Inhibition of lipid synthesis related gene expression in mouse 3T3-L1 cells assessed as reduction in DGAT2 expression at 20 uM incubated for 6 days by real-time PCR analysis; type: functional, cell-based; settings: time 6.0 day
[8] = tested on: 3T3-L1; test: Inhibition of lipid synthesis related gene expression in mouse 3T3-L1 cells assessed as reduction in FAS expression at 20 uM incubated for 6 days by real-time PCR analysis; type: functional, cell-based; settings: time 6.0 day
[9] = tested on: Mus musculus; test: Anti-diabetic activity in high fat diet-fed C57BL/6J mouse model of obesity and diabetes assessed as reduction of white adipose tissue weight (epididymal adipose tissue ) at 20 mg/kg, ip dosed daily for 2 weeks; type: functional, organism-based
[10] = tested on: Mus musculus; test: Anti-diabetic activity in high fat diet-fed C57BL/6J mouse model of obesity and diabetes assessed as reduction in energy expenditure at 20 mg/kg, ip dosed daily for 2 weeks; type: functional, organism-based
[11] = tested on: Mus musculus; test: Anti-diabetic activity in high fat diet-fed C57BL/6J mouse model of obesity and diabetes assessed as reduction in food intake at 20 mg/kg, ip dosed daily for 2 weeks; type: functional; design: scale not given: the % may be the effect or the level left
[12] = tested on: Mus musculus; test: Anti-diabetic activity in high fat diet-fed C57BL/6J mouse model of obesity and diabetes assessed as reduction in body weight at 20 mg/kg, ip dosed daily for 8 days; type: functional, organism-based; settings: time 8.0 day
[13] = tested on: 3T3-L1; test: Inhibition of lipid synthesis related gene expression in mouse 3T3-L1 cells assessed as reduction in PPARgamma expression at 20 uM incubated for 6 days by real-time PCR analysis; type: functional, cell-based; settings: time 6.0 day
[14] = tested on: Mus musculus; test: Anti-diabetic activity in high fat diet-fed C57BL/6J mouse model of obesity and diabetes assessed as reduction in food intake at 20 mg/kg, ip dosed daily for 8 days; type: functional, organism-based; settings: time 8.0 day
[15] = molecular target: T1, Sterol O-acyltransferase 1 (Mus musculus) (UniProt Q61263); test: Inhibition of ACAT in mouse 3T3-L1 cells assessed as reduction in accumulation of fluorescence-labeled CE by 25-NBD cholesterol based assay; type: cell-based
T1 sequence (whole entry): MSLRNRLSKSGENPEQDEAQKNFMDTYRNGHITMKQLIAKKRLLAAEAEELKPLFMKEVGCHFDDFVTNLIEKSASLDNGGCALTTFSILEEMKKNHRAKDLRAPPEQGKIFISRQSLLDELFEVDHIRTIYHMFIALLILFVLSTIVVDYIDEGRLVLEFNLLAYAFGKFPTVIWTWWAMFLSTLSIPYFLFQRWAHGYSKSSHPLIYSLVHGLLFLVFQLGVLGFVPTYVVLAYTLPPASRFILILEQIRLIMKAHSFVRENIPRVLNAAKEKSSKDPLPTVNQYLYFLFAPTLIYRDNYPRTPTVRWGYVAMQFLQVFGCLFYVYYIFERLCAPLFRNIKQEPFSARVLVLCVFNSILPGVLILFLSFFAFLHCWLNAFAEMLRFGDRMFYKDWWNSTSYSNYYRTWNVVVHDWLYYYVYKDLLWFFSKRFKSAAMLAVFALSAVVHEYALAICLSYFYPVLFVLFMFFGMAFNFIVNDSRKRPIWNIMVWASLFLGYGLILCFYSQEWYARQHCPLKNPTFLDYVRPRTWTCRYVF

[16] = tested on: Mus musculus; test: Anti-diabetic activity in high fat diet-fed C57BL/6J mouse model of obesity and diabetes assessed as reduction in blood glucose at 20 mg/kg, ip dosed daily for 2 weeks; type: functional, organism-based
[17] = tested on: Mus musculus; test: Anti-diabetic activity in high fat diet-fed C57BL/6J mouse model of obesity and diabetes assessed as reduction in serum leptin level at 20 mg/kg, ip dosed daily for 2 weeks; type: functional, organism-based
[18] = tested on: 3T3-L1; test: Inhibition of lipid synthesis related gene expression in mouse 3T3-L1 cells assessed as reduction in SCD1 expression at 20 uM incubated for 6 days by real-time PCR analysis; type: functional, cell-based; settings: time 6.0 day
[19] = tested on: Mus musculus; test: Anti-diabetic activity in high fat diet-fed C57BL/6J mouse model of obesity and diabetes assessed as reduction in insulin levels at 20 mg/kg, ip dosed daily for 2 weeks; type: functional, organism-based
[20] = tested on: Mus musculus; test: Anti-diabetic activity in high fat diet-fed C57BL/6J mouse model of obesity and diabetes assessed as improvement in blood lipid profile by measuring decrease in CE level at 20 mg/kg, ip dosed daily for 2 weeks; type: functional, organism-based
[21] = tested on: 3T3-L1; test: Inhibition of lipid accumulation in mouse 3T3-L1 cells at 10 to 20 uM incubated for 6 days by CARS microscopy; type: functional, cell-based; settings: dose 10-20 µM, time 6.0 day
[22] = tested on: Mus musculus; test: Anti-diabetic activity in high fat diet-fed C57BL/6J mouse model of obesity and diabetes assessed as reduction of whole body fat mass at 20 mg/kg, ip dosed daily for 2 weeks; type: functional, organism-based
[23] = tested on: Mus musculus; test: Anti-diabetic activity in high fat diet-fed C57BL/6J mouse model of obesity and diabetes assessed as reduction of white adipose tissue at 20 mg/kg, ip dosed daily for 2 weeks; type: functional, organism-based
[24] = tested on: Mus musculus; test: Anti-diabetic activity in high fat diet-fed C57BL/6J mouse model of obesity and diabetes assessed as reduction of white adipose tissue weight (retroperitoneal adipose tissue ) at 20 mg/kg, ip dosed daily for 2 weeks; type: functional, organism-based
[25] = tested on: Mus musculus; test: Anti-diabetic activity in high fat diet-fed C57BL/6J mouse model of obesity and diabetes assessed as improvement in HOMA-IR levels at 20 mg/kg, ip dosed daily for 2 weeks; type: functional, organism-based
[26] = tested on: 3T3-L1; test: Inhibition of cholesterol uptake related gene expression in mouse 3T3-L1 cells assessed as reduction in CD36 expression at 20 uM incubated for 6 days by real-time PCR analysis; type: functional, cell-based; settings: time 6.0 day
[27] = tested on: Mus musculus; test: Effect on fecal energy content in high fat diet-fed C57BL/6J mouse model of obesity and diabetes at 20 mg/kg, ip dosed daily for 8 days; type: functional, organism-based; settings: time 8.0 day
[28] = tested on: Mus musculus; test: Anti-diabetic activity in high fat diet-fed C57BL/6J mouse model of obesity and diabetes assessed as improvement in blood lipid profile by measuring decrease in TG level at 20 mg/kg, ip dosed daily for 2 weeks; type: functional, organism-based
[29] = tested on: 3T3-L1; test: Inhibition of lipid accumulation in mouse 3T3-L1 cells at 1 to 20 uM incubated for 6 days by Oil Red O staining based spectrometric assay; type: functional, cell-based; settings: dose 1-20 µM, time 6.0 day
[30] = tested on: 3T3-L1; test: Inhibition of lipid synthesis related gene expression in mouse 3T3-L1 cells assessed as reduction in SREBPlc expression at 20 uM incubated for 6 days by real-time PCR analysis; type: functional, cell-based; settings: time 6.0 day
[31] = tested on: 3T3-L1; test: Effect on cytochrome B5 reductase 3 in mouse 3T3-L1 cells at 10 uM dosed during day 2 to 6 and followed by drug replacement every 48 hrs by LC-MS/MS analysis based proteomic analysis; type: functional; settings: time 4.0 day
[32] = tested on: 3T3-L1; test: Inhibition of lipid synthesis related gene expression in mouse 3T3-L1 cells assessed as reduction in MGAT1 expression at 20 uM incubated for 6 days by real-time PCR analysis; type: functional, cell-based; settings: time 6.0 day
[33] = tested on: Mus musculus; test: Anti-diabetic activity in high fat diet-fed C57BL/6J mouse model of obesity and diabetes assessed as improvement in blood lipid profile by measuring decrease in free cholesterol at 20 mg/kg, ip dosed daily for 2 weeks; type: functional, organism-based
[34] = tested on: 3T3-L1; test: Inhibition of LD accumulation mouse 3T3-L1 cells using deuterium labeled glucose-d7 by SRS microscopy; type: functional, cell-based
[35] = tested on: Mus musculus; test: Anti-diabetic activity in high fat diet-fed C57BL/6J mouse model of obesity and diabetes assessed as reduction in total body weight gain at 20 mg/kg, ip dosed daily for 2 weeks; type: functional; design: scale not given: the % may be the effect or the level left
[36] = tested on: 3T3-L1; test: Inhibition of lipid accumulation in mouse 3T3-L1 cells at 1 to 20 uM incubated for 6 days by Oil Red O staining based spectrometric assay relative to control; type: functional; settings: dose 1-20 µM, time 6 day
[37] = Hepato-toxicity in high fat diet-fed C57BL/6J mouse model of obesity and diabetes assessed as effect on ALT activity at 20 mg/kg, ip dosed daily for 2 weeks; type: organism-based; settings: in vivo, 336 h
[38] = tested on: 3T3-L1; test: Effect on superoxide dismutase 1 in mouse 3T3-L1 cells at 10 uM dosed during day 2 to 6 and followed by drug replacement every 48 hrs by LC-MS/MS analysis based proteomic analysis; type: functional; settings: time 4.0 day
[39] = tested on: Mus musculus; test: Anti-diabetic activity in high fat diet-fed C57BL/6J mouse model of obesity and diabetes assessed as reduction in respiratory exchange ratio at 20 mg/kg, ip dosed daily for 2 weeks; type: functional, organism-based

With `CCCCCCCCCCC(C)(C)C(=O)Nc1c(OC)cc(OC)cc1OC` the inhibition [1] was “Active”.
In the case of `CC(C)c1cc(C(C)C)c(CC(=O)NS(=O)(=O)Oc2c(C(C)C)cccc2C(C)C)c(C(C)C)c1` [AVASIMIBE], the inhibition [2] is reported as “Active”, the inhibition [3] is reported as “Active” and the Activity [4] is reported as “Active”. For the same molecule, the inhibition [5] was “Active”, the Activity [6] was “Active” and the inhibition [7] was “Active”. For the same molecule, the inhibition [8] was “Active”, the Activity [9] was “Active” and the Activity [10] was “Active”. For the same molecule, the Activity [11] was 50%, the Activity [12] was “Active” and the inhibition [13] was “Active”. The Activity [14] was “Active”, the inhibition [15] was “Active” and the Activity [16] was “Active”. For the same molecule, the Activity [17] was “Active”, the inhibition [18] was “Active” and the Activity [19] was “Active”. For the same molecule, the Activity [20] was “Active”, the inhibition [21] was “Active” and the Activity [22] was “Active”. For the same molecule, the Activity [23] was “Active”, the Activity [24] was “Active” and the Activity [25] was “Active”. The inhibition [26] was “Active”, the Activity [27] was “inactive” and the Activity [28] was “Active”. The inhibition [29] was “Dose-dependent effect”, the inhibition [30] was “Active” and the Activity [31] was “inactive”. The inhibition [32] was “Active”, the Activity [33] was “Active” and the inhibition [34] was “Active”. For the same molecule, the Activity [35] was 25%, the “inhibition (INH)” value [36] was “<=60%” and the Activity [37] was “Non-Toxic”. The Activity [38] was “inactive” and the Activity [39] was “Active”.
